Experimental data published in patent US20050215551A1, “1-[2H-1-benzopyran-2-one-8-yl]- piperazine derivatives for the treatment of movement disorders” (SOLVAY PHARMACEUTICALS B.V., priority 2004, published 2005).

Assays:
5-HT3 = 5-HT3 (Homo sapiens, UniProt P46098); assay: Receptor binding 5-HT3; details: radioligand [3H]-BRL 43694, read-out: Ki(nM) Compound 1
Procedure: (§1) Receptor binding data were obtained by CEREP (128, rue Danton, 92500 Rueil-Malmaison, France) or at Solvay Pharmaceuticals B.V., using well documented standard procedures. Affinity for 5-HT1A receptors for instance, was determined by testing the ability of the compounds of the invention to displace [^3H]-2-(di-n-propylamino)-8-hydroxytetralin ([^3H]-8-OH-DPAT) from its specific binding sites in rat frontal cortex homogenates. This test is based on the method described by Gozlan et al. (Nature, 305, (1983), pages 140-142).
(§2) The binding data collected in the table below were either obtained by CEREP (128, rue Danton, 92500 Rueil-Malmaison, France) or at Solvay Pharmaceuticals B.V., using well documented standard procedures.

Dopamine-D2 = Dopamine-D2 (Homo sapiens, UniProt P14416); assay: Receptor binding Dopamine-D2; details: radioligand [3H]-spiperone, read-out: Ki(nM) Compound 1
Procedure: as §1, §2

Muscarine-M3 = Muscarine-M3 (Homo sapiens, UniProt P20309); assay: Receptor binding Muscarine-M3; details: radioligand [3H]-4-DAMP, read-out: Ki(nM) Compound 1
Procedure: as §1, §2

5-HT5 = 5-HT5 (Homo sapiens, UniProt P47898); assay: Receptor binding 5-HT5; details: radioligand [3H]-LSD, read-out: Ki(nM) Compound 1
Procedure: as §1, §2

DBA/2 mice = assay: Interaction studies in DBA/2 mice: Compound 1 + vehicle, sumatriptan or SB 258741 (audiogenic seizures); assay type: in vivo; details: for Percentage of animal response, Clonic seizures / Percentage of animal response, Tonic extension: 30 min
Procedure: The experiments are performed according to the method previously described by De Sarro et al. (1984), Eur. J. Pharmacol., 104, 55-60. Compounds of the invention or vehicle (controls) are given intraperitoneally (i.p.) and orally (p.o.) as freshly sonicated solutions in methylcellulose 1%. For the i.p. treatment compounds of the invention are given at doses of 0.1, 0.3, 3, 10, 15, 20 and 30 mg/kg; pretreatment time at 30 and 60 min., For oral treatment, all animals are pretreated either at 30 or 60 min using the compounds of the invention at doses of 0.1, 0.3, 3, 6 and 10 mg/kg p.o. At least 10 mice per dose are used. After pretreatment time, each mouse is placed under a hemispheric perspex dome (58 cm in diameter) and 1 min is allowed for habituation and assessment of locomotor activity. Animals are challenged with a 12-16 kHz sinusoidal tone at 109 dB. Seizure response is assessed by two independent observers. The sound evoked behaviour is coded using the following scale: 0=no response, 1=wild running, 2=clonus, 3=tonic flexor and/or extensor; 4=respiratory arrest, on the basis of the concordant opinion of the observers. […] The maximum response is recorded for each animal. Rectal temperature is recorded immediately prior to auditory testing using an Elektrolaboratoriet thermometer type T.E.3. Behavioral changes are observed during the period between drug administration and auditory testing. In these experiments separate vehicle-treated and drug-treated groups are used at each pretreatment time (15 min-60 min). Percentage of mice showing wild running, clonic or tonic phase and the duration of anticonvulsant activity are compared to control group and statistically analyzed.

Endothelin-ETB = Endothelin-ETB (Homo sapiens, UniProt P24530); assay: Receptor binding Endothelin-ETB; details: radioligand [125I]-endothelin-1, read-out: Ki(nM) Compound 1
Procedure: as §1, §2

CCKB = CCKB (Homo sapiens, UniProt P32239); assay: Receptor binding CCKB; details: radioligand [3H]-CCK8, read-out: Ki(nM) Compound 1
Procedure: as §1, §2

Histamine-H3 = Histamine-H3 (Rattus norvegicus, UniProt Q9QYN8); assay: Receptor binding Histamine-H3; details: radioligand [3H]-α-methylhistamine, read-out: Ki(nM) Compound 1
Procedure: as §1, §2

[1] = dose of Compound 1 0.3 mg/kg i.p.
[2] = dose of Compound 1 3 mg/kg i.p.
[3] = dose of Compound 1 10 mg/kg i.p.
[4] = dose of Compound 1 15 mg/kg i.p.
[5] = dose of Compound 1 20 mg/kg i.p.

Muscarine-M3, sequence (P20309 whole entry): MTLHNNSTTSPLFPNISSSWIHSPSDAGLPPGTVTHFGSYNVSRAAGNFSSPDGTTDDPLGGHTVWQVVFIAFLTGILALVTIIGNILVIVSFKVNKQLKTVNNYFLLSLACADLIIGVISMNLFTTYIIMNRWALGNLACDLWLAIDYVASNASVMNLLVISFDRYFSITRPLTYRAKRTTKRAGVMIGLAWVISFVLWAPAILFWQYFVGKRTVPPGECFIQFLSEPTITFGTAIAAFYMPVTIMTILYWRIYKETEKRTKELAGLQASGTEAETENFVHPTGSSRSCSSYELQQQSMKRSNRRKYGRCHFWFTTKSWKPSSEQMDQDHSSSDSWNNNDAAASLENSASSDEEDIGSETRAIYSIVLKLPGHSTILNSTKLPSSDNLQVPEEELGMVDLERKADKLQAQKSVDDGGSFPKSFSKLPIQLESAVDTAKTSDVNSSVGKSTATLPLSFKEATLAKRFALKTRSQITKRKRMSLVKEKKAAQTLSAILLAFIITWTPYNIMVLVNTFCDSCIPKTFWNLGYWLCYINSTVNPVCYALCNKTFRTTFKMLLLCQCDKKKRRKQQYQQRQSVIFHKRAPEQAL
Dopamine-D2, sequence (P14416 whole entry): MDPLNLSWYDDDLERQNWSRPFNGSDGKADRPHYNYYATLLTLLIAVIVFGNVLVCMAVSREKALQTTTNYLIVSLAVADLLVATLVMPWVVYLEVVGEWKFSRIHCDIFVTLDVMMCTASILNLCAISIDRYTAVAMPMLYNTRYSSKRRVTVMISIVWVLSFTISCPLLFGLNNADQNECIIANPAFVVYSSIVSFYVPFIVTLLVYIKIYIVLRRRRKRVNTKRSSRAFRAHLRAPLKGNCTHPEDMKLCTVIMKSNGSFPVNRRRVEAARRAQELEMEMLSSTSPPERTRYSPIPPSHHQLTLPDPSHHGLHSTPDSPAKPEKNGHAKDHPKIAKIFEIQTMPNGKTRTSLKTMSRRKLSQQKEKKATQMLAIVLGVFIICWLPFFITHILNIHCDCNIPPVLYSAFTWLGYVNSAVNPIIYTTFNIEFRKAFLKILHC
CCKB, sequence (P32239 whole entry): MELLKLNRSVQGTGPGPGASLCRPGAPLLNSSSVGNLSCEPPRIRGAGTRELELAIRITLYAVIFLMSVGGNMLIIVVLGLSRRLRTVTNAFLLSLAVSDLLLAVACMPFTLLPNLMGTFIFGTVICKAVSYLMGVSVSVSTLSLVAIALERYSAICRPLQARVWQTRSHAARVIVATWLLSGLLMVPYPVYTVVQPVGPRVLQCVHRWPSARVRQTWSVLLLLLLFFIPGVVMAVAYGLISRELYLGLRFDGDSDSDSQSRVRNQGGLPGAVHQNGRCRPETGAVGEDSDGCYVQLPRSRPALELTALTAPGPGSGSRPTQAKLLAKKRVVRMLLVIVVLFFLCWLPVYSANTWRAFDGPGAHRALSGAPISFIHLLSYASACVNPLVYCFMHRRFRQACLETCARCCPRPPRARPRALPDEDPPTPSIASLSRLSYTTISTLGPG
Endothelin-ETB, sequence (P24530 27-442): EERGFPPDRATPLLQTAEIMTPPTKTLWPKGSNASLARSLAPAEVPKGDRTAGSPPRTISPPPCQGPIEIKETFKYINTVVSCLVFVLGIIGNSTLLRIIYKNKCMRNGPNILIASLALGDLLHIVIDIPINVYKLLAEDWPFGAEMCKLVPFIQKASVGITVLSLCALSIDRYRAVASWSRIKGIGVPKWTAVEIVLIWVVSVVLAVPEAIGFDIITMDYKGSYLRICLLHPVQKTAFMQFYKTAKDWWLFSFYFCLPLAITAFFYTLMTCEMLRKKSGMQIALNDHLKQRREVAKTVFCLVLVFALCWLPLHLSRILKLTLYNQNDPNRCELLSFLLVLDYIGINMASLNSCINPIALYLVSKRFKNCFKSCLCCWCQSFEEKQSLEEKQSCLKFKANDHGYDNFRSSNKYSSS
Histamine-H3, sequence (Q9QYN8 whole entry): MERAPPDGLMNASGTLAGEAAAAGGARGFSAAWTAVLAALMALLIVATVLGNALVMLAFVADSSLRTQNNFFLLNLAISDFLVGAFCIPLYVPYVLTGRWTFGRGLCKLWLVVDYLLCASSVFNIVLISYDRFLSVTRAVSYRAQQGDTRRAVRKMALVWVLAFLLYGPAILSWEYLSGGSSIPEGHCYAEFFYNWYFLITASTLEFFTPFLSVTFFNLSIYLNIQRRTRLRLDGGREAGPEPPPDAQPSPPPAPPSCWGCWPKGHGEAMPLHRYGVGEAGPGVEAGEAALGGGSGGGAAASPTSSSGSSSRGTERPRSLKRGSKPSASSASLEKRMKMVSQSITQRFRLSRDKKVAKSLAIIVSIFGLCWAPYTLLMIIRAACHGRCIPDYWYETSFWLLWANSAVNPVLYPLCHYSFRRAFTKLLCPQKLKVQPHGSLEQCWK
5-HT5, sequence (P47898 whole entry): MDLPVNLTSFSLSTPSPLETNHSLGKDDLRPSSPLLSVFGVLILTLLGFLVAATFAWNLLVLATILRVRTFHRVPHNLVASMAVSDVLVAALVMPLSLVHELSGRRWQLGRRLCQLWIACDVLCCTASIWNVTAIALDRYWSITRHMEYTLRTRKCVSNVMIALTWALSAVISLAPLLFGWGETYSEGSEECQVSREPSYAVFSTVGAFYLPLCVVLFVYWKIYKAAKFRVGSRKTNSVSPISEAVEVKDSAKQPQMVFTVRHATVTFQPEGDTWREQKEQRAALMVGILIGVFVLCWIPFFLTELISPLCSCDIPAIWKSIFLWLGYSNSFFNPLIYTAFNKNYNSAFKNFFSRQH
5-HT3, sequence (P46098 24-478): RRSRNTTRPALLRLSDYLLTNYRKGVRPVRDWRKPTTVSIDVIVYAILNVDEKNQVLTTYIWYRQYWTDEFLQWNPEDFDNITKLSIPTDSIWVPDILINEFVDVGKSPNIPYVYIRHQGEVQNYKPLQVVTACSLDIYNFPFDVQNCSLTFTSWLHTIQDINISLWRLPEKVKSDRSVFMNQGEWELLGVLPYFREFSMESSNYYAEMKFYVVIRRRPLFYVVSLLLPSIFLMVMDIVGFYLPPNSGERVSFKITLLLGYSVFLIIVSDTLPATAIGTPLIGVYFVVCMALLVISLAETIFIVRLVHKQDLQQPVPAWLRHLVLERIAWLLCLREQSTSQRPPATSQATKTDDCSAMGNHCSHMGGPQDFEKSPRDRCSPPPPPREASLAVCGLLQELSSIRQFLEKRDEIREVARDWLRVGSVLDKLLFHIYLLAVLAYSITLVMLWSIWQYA

Work on Nc1cc2cccc(N3CCNCC3)c2oc1=O [Compound 1, 3-amino-8-(1-piperazinyl)-2H-1-benzopyran-2-one] yielded a Ki (5-HT3) of 250 nM, a Ki (Dopamine-D2) greater than 1000 nM and a Ki (Muscarine-M3) greater than 1000 nM. The Ki (5-HT5) was 100 nM, the “Percentage of animal response, Clonic seizures” value (“Percentage … Clonic seizures” below) (DBA/2 mice; [1]) was 90% and the “Percentage of animal response, Tonic extension” value (from here on “Percentage … Tonic extension”) (DBA/2 mice; [1]) was 60%. The “Percentage … Clonic seizures” value (DBA/2 mice; [2]) was 80%, the “Percentage … Tonic extension” value (DBA/2 mice; [2]) was 40% and the “Percentage … Clonic seizures” value (DBA/2 mice; [3]) was 40%. For the same molecule, the “Percentage … Tonic extension” value (DBA/2 mice; [3]) was 0%, the “Percentage … Clonic seizures” value (DBA/2 mice; [4]) was 20% and the “Percentage … Tonic extension” value (DBA/2 mice; [4]) was 0%. The “Percentage … Clonic seizures” value (DBA/2 mice; [5]) was 10%, the “Percentage … Tonic extension” value (DBA/2 mice; [5]) was 0% and the behavioural changes (DBA/2 mice; i.p., all dosages tested) was “At none of the dosages tested”. The Ki (Endothelin-ETB) was greater than 1000 nM, the Ki (CCKB) was greater than 1000 nM and the Ki (Histamine-H3) was greater than 10000 nM.
